# Experimental data as given in patent US12233413B2, “Massively parallel microfluidic cell analyzer for high throughput mechanophenotyping” (priority 2018, dated 2025).
# Like-named read-outs stand apart in the source and are kept apart here.
# Key:
# [1] = system: HeyA8 ovarian cancer cells; assay type: cell-based
# Method: Cell transit times were determined in accordance with the approach described above. […] In the testing, Phosphate Buffered Saline (PBS) suspended HeyA8 ovarian cancer cells were driven through the device using a pressure pump controller (Fluigent MFCS-EZ) at 80 mbar. Three suspensions of cells with varying stiffness were prepared. The first sample was exposed to 1 μM Latrunculin A, abbreviated as LatA, (Sigma-Aldrich), an Actin polymerization inhibitor, for 60 mins at 37° C. to reduce the cell stiffness. The second sample was left untreated. […] In operation, the sensor network 620 was driven with an 500 kHz AC signal and the electrical sensor data from the chip was recorded using a lock-in-amplifier (Zurich Instruments HF2LI) and sampled into a computer. The cell size and the transit time were both measured from the sensor signal peak amplitude and the time delay between the code waveforms corresponding to sensor pairs, respectively.
# [2] = system: MDA-MB-231 (human mammary adenocarcinoma) cells; assay type: cell-based
# Method: For each population in our experiments, we used the computed sensor signal amplitude and constriction transit time as measures of the cell size and its stiffness, respectively (see FIGS. 10A-10C).
# Because the data on different cell populations were acquired under the same driving pressure and electrical excitation, we could directly compare the characterization results (see FIG. 10D).
# For the single frequency device, two different sample of MDA-MB-231 cells were treated with Latrunculin A (Sigma-Aldrich; St. Louis, MO) and formaldehyde (Sigma-Aldrich; St. Louis, MO) and suspended in Phosphate Buffered Saline (PBS). […] Prior to experiments, the cells were trypsinized for two minutes, pelleted, resuspended in PBS and mixed gently to dissociate cell clusters that may have formed. Finally, the suspension was diluted with PBS to a cell concentration of 1.5×10^6 cells/mL. For the LatA exposure, 100 μg of LatA in lyophilized powder form was reconstituted in dimethyl sulfoxide (DMSO), then diluted in PBS to form a 5.9 nM stock solution. The trypsinized and pelleted MDA-MB-231 cells were mixed with 1 mL of 1 nM LatA and incubated at 37° C. for 60 mins. The cells were pelleted once more and resuspended in PBS. […] The trypsinized and pelleted MDA-MB-231 cells were mixed with diluted 4% PFA and incubated at 37° C. for 10 mins. The cells were pelleted once more and resuspended in PBS.
# During the above-described experiment, the cell sample was loaded into a sealed 10 mL laboratory tube and pneumatically driven through the device using a software-controlled pressure regulator (MFCSEZ, Fluigent). The driving pressure was 100 mbar for both single-frequency and multi-frequency devices. In the case of the single-frequency device, the electrical networks were excited using a 800 mVpp, 500 kHz sinusoidal signal generated by the lock-in amplifier (HF2LI, Zurich Instruments). For the multi-frequency device, the 500 kHz and 900 kHz sine signals were generated by the lock-in amplifier, whereas the 1300 kHz signal was obtained using a waveform generator (33612A, Keysight), all at 800 mVpp.
Structure (SMILES),longer transit time of treated cells compared to the untreated cells [1],average constriction transit time of treated cells [2],"transit time of the untreated cells longer than that of the LatA treated cells, on average ([1]; HeyA8 cells in PBS, 1 μM Latrunculin A, 60 mins at 37° C., driven at 80 mbar)","less constriction transit time than untreated cells, on average ([2]; MDA-MB-231, 1 nM LatA 60 mins at 37° C., 100 mbar)","average constriction transit time of treated cells ([2]; MDA-MB-231, 100 mbar, 1.5×10^6 cells/mL, LatA 1 nM 60 mins 37° C., fixation with diluted 4% PFA 10 mins 37° C.)"
C=O [Formaldehyde],36%,54.01 ms,–,–,–
"C/C1=C/C(=O)O[C@@H]2C[C@@H](CC[C@H](C)/C=C\C=C\CC1)O[C@@](O)([C@@H]1CSC(=O)N1)C2 [LatA, Latrunculin A]",–,–,34%,8.9%,42.35 ms
